US7115574B2, “System and method for support legacy operating system booting in a legacy-free system” (priority 2001, dated 2006)

System: carrageenan-induced swelling in rat paws
Experiment: Rat paw edema test (carrageenan)
Assay type: in vivo, Sprague-Dawley rats
Conditions: 100 mg/kg intraperitoneal, rats
Procedure: A second in vivo bioassay for anti-inflammatory activity was conducted in which the action of the tripeptide (SEQ ID NO: 1) was compared to that of hydrocortisone. In this assay, the two agents were given at similar doses and tested for their independent ability to inhibit carrageenan-induced swelling in rat paws. This assay, the rat paw edema test, was conducted generally as it is typically performed in the art, for example, as described by Winter et al. (1962), Proc. Soc. Exp. Biol. Med., 111:544 or in U.S. Pat. No. 4,150,137.
Briefly, the assay was performed as follows. Each of twenty-four male Sprague-Dawley rats was assigned to one of four groups: Tripeptide treatment and controls (matched according to body weight and initial paw volume), hydrocortisone treatment and matched controls. The volume of the right rear paw of the test and control animals was determined using standard procedures and a mercury displacement volumetric technique. […] One hour later 0.5 ml of 1% lambda carrageenan in saline solution was injected into the right rear paw of the animals and the paw volume was again recorded (baseline measure). For comparison of the effects of the two treatments, paw volume of experimental animals measured at hourly intervals was expressed as a percentage of the volume change of their respective matched controls.

Substance: Ac-Lys-Pro-Val-NH2 [α-MSH(11-13)]
- anti-inflammatory activity (inhibition of paw edema) (between 1 and 4 hours): nearly identical anti-inflammatory activity
- decrease in paw inflammation (first hour after carrageenan injection): no such reduction was observed
